Reference: patent US10624875B2, “Methods and compositions for treating schizophrenia” (The Johns Hopkins University, priority 2012, dated 2020)

Columns and labels:
Assay type in all cases: in vivo, human
DG/CA3 = assay: fMRI activity during explicit 3-alternative forced choice task, DG/CA3; conditions: aMCI subjects, 125 mg twice a day for two weeks, versus placebo
Protocol: (§1) A within-subjects trial of 8 weeks duration, involving 17 amnestic MCI (aMCI) subjects and 17 age-matched controls with a low dose treatment of levetiracetam is conducted. During the course of the study, each aMCI subject receives both drug and placebo treatments separately in two periods of two weeks each, with the order of treatments among different aMCI subjects counterbalanced (see FIG. 7). Age-matched control subjects treated with placebo serve as a further control. Cognitive testing and fMRI imaging data are obtained from the subjects after each two week period of drug/placebo treatment. As described above, the drug treatment period is the two weeks preceding Visit 1 or 2 (with the two week period preceding the other Visit being the placebo phase). […] Imaging data are obtained through high-resolution methods developed in the Stark laboratory. Data are collected on a Phillips 3 Tesla scanner (Eindhoven, The Netherlands) equipped with an 8-channel SENSE (Sensitivity Encoding) head coil, located at the F.M. Kirby Research Center for Functional Brain Imaging at the Kennedy Krieger Institute (Baltimore, Md.). […] Group data are analyzed using a two-way Analysis of Variance (ANOVA) with trial types and group as fixed factors, and subject as a random factor nested within group. […]

entorhinal cortex (EC) = assay: fMRI activity during explicit 3-alternative forced choice task, entorhinal cortex; conditions: aMCI subjects, 125 mg twice a day for two weeks, versus placebo
Protocol: as §1

aMCI subjects [1] = assay: Verbal Paired Associates Test - Delayed Recall; conditions: 125 mg twice a day for two weeks
Protocol: (§2) A within-subjects trial of 8 weeks duration, involving 17 amnestic MCI (aMCI) subjects and 17 age-matched controls with a low dose treatment of levetiracetam is conducted. During the course of the study, each aMCI subject receives both drug and placebo treatments separately in two periods of two weeks each, with the order of treatments among different aMCI subjects counterbalanced (see FIG. 7). Age-matched control subjects treated with placebo serve as a further control. Cognitive testing and fMRI imaging data are obtained from the subjects after each two week period of drug/placebo treatment.
(§3) All participants undergo neuropsychological evaluation at the time of assessment for treatment efficacy (Visits 1 and 2), as well as at the Baseline Visit. […]
(§4) As described above, the drug treatment period is the two weeks preceding Visit 1 or 2 (with the two week period preceding the other Visit being the placebo phase). For the subjects receiving the drug treatment, half a scored 250 mg tablet of levetiracetam is used to achieve a dose of […], which is approximately 3.6 mg/kg/day (assuming an average adult human weight of 70 kg).

aMCI subjects [2] = assay: Benton Visual Retention Test; conditions: 125 mg twice a day for two weeks
Protocol: as §2, §3, §4

## CC[C@@H](C(N)=O)N1CCCC1=O [levetiracetam, (2S)-2-(2-oxopyrrolidin-1-yl) butanamide]
DG/CA3
  DG/CA3 activity during lure stimuli correctly identified as similar: reduces DG/CA3 hyper-activity
Entorhinal cortex (EC)
  EC activity during memory judgments: increases EC activity
aMCI subjects [1]
  performance in Verbal Paired Associates Test - Delayed Recall: fail to rescue performance
aMCI subjects [2]
  performance in Benton Visual Retention Test: fail to rescue performance
